Experimental findings from US20240197726A1, “NOVEL TETRAHYDROISOQUINOLINE ALKALOID COMPOUND CONTAINING MACROCYCLE” (THE UNIVERSITY OF TOKYO, priority 2021, published 2024) are described below.

Where two headings read alike, the source gives them in different places.

Holding throughout (assay type): cell-based
Experiment [1] relates to SK-OV-3 cancer cells. The experiment is described as follows: antitumor activity, sulforhodamine B cell growth assay, SK-OV-3. As to conditions: SK-OV-3, drug exposure 48 hours, read-out: GI50 value: 50% growth inhibitory concentration. The protocol: (§1) The THIQ compound containing a macrocyclic structure of the present invention was administered to various cancer cell lines, and the antitumor activity (Go value) was observed. Specifically, verification was performed according to the literature (Yamori, T.; Matsunaga, A.; Sato, S.; Yamazaki, K.; Komi, A.; Ishizu, K. et al. Cancer Res. 1999, 59, 4042) by the following procedure.
(§2) Cells were plated at an appropriate density in a 96-well plate in RPMI 1640 together with 5% fetal bovine serum, and adhered overnight. The cells were exposed to a drug for 48 hours. Then, according to the sulforhodamine B assay described by Skehan et al (Skehan P., Storeng R., Scudiero D., Monks A., McMahon J., Vistica D., Warren J. T., Bokesch H., Kenney S., Boyd M. R. J Natl. Cancer Inst, 1990, 82, 1107-1112), the cell growth rate was measured. The absorbance of the control well (C) and the test well (T) was measured at 525 nm. In addition, the time at which the drug was added was set as time 0, and the absorbance for the test well (T0) was measured. Using these measured values, the cell growth inhibitory effect (% growth=PG) was calculated by the following formula at each concentration of the drug.
(§3) (T<T0): PG=100×[(T−T0)/T]
(§4) The PG values determined above for each cell line were plotted against the concentration (logarithm) on a semi-logarithmic graph, and summarized for each visceral cancer. Concentrations at which the dose-response curve of each cell line crossed the horizontal line of PG=50%, 0%, or −50% were calculated. These concentrations were defined as Log GI50, Log TGI, and Log LC50. Actually, using two data points of the drug concentration before and after crossing each horizontal line, the drug concentration (logarithmic value) at the intersection of the straight line connecting the two points and the horizontal line for each PG was calculated.

Experiment [2] concerns KM-12 colorectal cancer cells. The experiment is described as follows: antitumor activity, sulforhodamine B cell growth assay, KM-12. As to conditions: KM-12, drug exposure 48 hours, read-out: GI50 value: 50% growth inhibitory concentration. The protocol: as §1, §2, §3, §4
Experiment [3] has as its system OVCAR-8 cancer cells. Kind of experiment: antitumor activity, sulforhodamine B cell growth assay, OVCAR-8. The following applies: OVCAR-8, drug exposure 48 hours, read-out: GI50 value: 50% growth inhibitory concentration. The protocol: as §1, §2, §3, §4
Experiment [4] concerns MKN-B gastric cancer cells. The experiment is described as follows: antitumor activity, sulforhodamine B cell growth assay, MKN-B. The following applies: MKN-B, drug exposure 48 hours; read-out: GI50 value: 50% growth inhibitory concentration. The protocol:
as §1, §2, §3, §4

Experiment [5] relates to St-4 gastric cancer cells. The experiment is described as follows: antitumor activity, sulforhodamine B cell growth assay, St-4. As to conditions: St-4 (SI-4 in Tables 2-11), drug exposure 48 hours; read-out: GI50 value: 50% growth inhibitory concentration. The protocol: as §1, §2, §3, §4
Experiment [6] deals with SF-539 central nervous system cancer cells. The experiment is described as follows: antitumor activity, sulforhodamine B cell growth assay, SF-539. As to conditions: SF-539, drug exposure 48 hours, read-out: GI50 value: 50% growth inhibitory concentration. The protocol: as §1, §2, §3, §4
Experiment [7] deals with HBC-5 breast cancer cells. Kind of experiment: antitumor activity, sulforhodamine B cell growth assay, HBC-5. The following applies: HBC-5, drug exposure 48 hours, read-out: GI50 value: 50% growth inhibitory concentration. The protocol:
as §1, §2, §3, §4

The subject of experiment [8] is DMS273 lung cancer cells. Kind of experiment: antitumor activity, sulforhodamine B cell growth assay, DMS273. As to conditions: DMS273, drug exposure 48 hours, read-out: GI50 value: 50% growth inhibitory concentration. The method, then: as §1, §2, §3, §4
The test system of experiment [9] is HCT-15 colorectal cancer cells. Kind of experiment: antitumor activity, sulforhodamine B cell growth assay, HCT-15. As to conditions: HCT-15, drug exposure 48 hours, read-out: GI50 value: 50% growth inhibitory concentration. The method, then: as §1, §2, §3, §4
The test system of experiment [10] is MKN-A gastric cancer cells. The experiment is described as follows: antitumor activity, sulforhodamine B cell growth assay, MKN-A. As to conditions: MKN-A, drug exposure 48 hours; read-out: GI50 value: 50% growth inhibitory concentration. The protocol:
as §1, §2, §3, §4

Experiment [11] concerns A549 lung cancer cells. Kind of experiment: antitumor activity, sulforhodamine B cell growth assay, A549. As to conditions: A549, drug exposure 48 hours, read-out: GI50 value: 50% growth inhibitory concentration. The method, then: as §1, §2, §3, §4
The subject of experiment [12] is OVCAR-3 cancer cells. Kind of experiment: antitumor activity, sulforhodamine B cell growth assay, OVCAR-3. The following applies: OVCAR-3, drug exposure 48 hours, read-out: GI50 value: 50% growth inhibitory concentration. The method, then: as §1, §2, §3, §4
Experiment [13] has as its system NCI-H460 lung cancer cells. The experiment is described as follows: antitumor activity, sulforhodamine B cell growth assay, NCI-H460. The following applies: NCI-H460, drug exposure 48 hours, read-out: GI50 value: 50% growth inhibitory concentration. The protocol:
as §1, §2, §3, §4

Experiment [14] deals with HCC2998 colorectal cancer cells. The experiment is described as follows: antitumor activity, sulforhodamine B cell growth assay, HCC2998. As to conditions: HCC2998, drug exposure 48 hours, read-out: GI50 value: 50% growth inhibitory concentration. The method, then: as §1, §2, §3, §4
The test system of experiment [15] is U251 central nervous system cancer cells. The experiment is described as follows: antitumor activity, sulforhodamine B cell growth assay, U251. As to conditions: U251, drug exposure 48 hours, read-out: GI50 value: 50% growth inhibitory concentration. The protocol:
as §1, §2, §3, §4

The test system of experiment [16] is NCI-H226 lung cancer cells. Kind of experiment: antitumor activity, sulforhodamine B cell growth assay, NCI-H226. The following applies: NCI-H226, drug exposure 48 hours, read-out: GI50 value: 50% growth inhibitory concentration. The method, then:
as §1, §2, §3, §4

The test system of experiment [17] is BSY-1 breast cancer cells. The experiment is described as follows: antitumor activity, sulforhodamine B cell growth assay, BSY-1. As to conditions: BSY-1, drug exposure 48 hours; read-out: GI50 value: 50% growth inhibitory concentration. The protocol:
as §1, §2, §3, §4

The test system of experiment [18] is SNB-75 central nervous system cancer cells. Kind of experiment: antitumor activity, sulforhodamine B cell growth assay, SNB-75. As to conditions: SNB-75, drug exposure 48 hours, read-out: GI50 value: 50% growth inhibitory concentration. The method, then:
as §1, §2, §3, §4

In experiment [19] the test system is MCF-7 breast cancer cells. The experiment is described as follows: antitumor activity, sulforhodamine B cell growth assay, MCF-7. The following applies: MCF-7, drug exposure 48 hours, read-out: GI50 value: 50% growth inhibitory concentration. The method, then: as §1, §2, §3, §4
Experiment [20] has as its system ACHN kidney cancer cells. The experiment is described as follows: antitumor activity, sulforhodamine B cell growth assay, ACHN. The following applies: ACHN, drug exposure 48 hours, read-out: GI50 value: 50% growth inhibitory concentration. The method, then: as §1, §2, §3, §4
The test system of experiment [21] is DU-145 prostate cancer cells. The experiment is described as follows: antitumor activity, sulforhodamine B cell growth assay, DU-145. The following applies: DU-145, drug exposure 48 hours, read-out: GI50 value: 50% growth inhibitory concentration. The protocol: as §1, §2, §3, §4

`COc1c(C)cc2c(c1O)[C@@H]1[C@@H]3Cc4c5c(C)c6c(c4C(CNC(=O)[C@H](C)N(C)CC#CCO5)N3[C@@H](C#N)[C@H](C2)N1C)OCO6` [Compound 29]: the GI50 in experiment [1] (Homo sapiens) is 5.7 nM; in experiment [2] (Homo sapiens, KM12), 3.1 nM; in experiment [3] (Homo sapiens), 2.6 nM; in [4], 3 nM; in [5] it was 3.8 nM; in experiment [6] (Homo sapiens), 1.3 nM. The GI50 in experiment [7] (HBC5) came out at 1.8 nM; in [8] (Homo sapiens, DMS-273) it was 1.1 nM; in [9] (Homo sapiens), 3.9 nM; in experiment [10], 3.5 nM; in experiment [11] (Homo sapiens), 3.4 nM; in experiment [12] (Homo sapiens), 2.6 nM. The GI50 came to 2.8 nM in [13] (Homo sapiens); 2.8 nM in experiment [14] (Homo sapiens, HCC 2998); 1.4 nM in experiment [15] (Homo sapiens, U-251); 2.5 nM in experiment [16] (Homo sapiens); 0.6 nM in [17]; 1.3 nM in experiment [18] (Homo sapiens). For the same compound, the GI50 in experiment [19] (Homo sapiens, MCF7) stood at 0.67 nM; in experiment [20] (Homo sapiens), 2.2 nM; in [21] (Homo sapiens) it was 3.5 nM.

Consider `C#CCN1C/C=C/C(=C)COc2c(C)c3c(c4c2C[C@H]2[C@H]5c6c(cc(C)c(OC)c6O)C[C@@H]([C@H](C#N)N2C4CNC(=O)[C@@H]1C)N5C)OCO3` [Compound 35], for which the GI50 turned out to be 6.5 nM in experiment [1] (Homo sapiens); 3.8 nM in experiment [2] (Homo sapiens, KM12); 3.1 nM in experiment [3] (Homo sapiens); 3.5 nM in experiment [4]; 3.8 nM in experiment [5]; 2.2 nM in [6] (Homo sapiens). Besides, the GI50 in [7] (HBC5) is 2.7 nM; in [8] (Homo sapiens, DMS-273), 2.5 nM; in [9] (Homo sapiens), 4.5 nM; in [10] it was 3.7 nM; in experiment [11] (Homo sapiens), 7.2 nM; in [12] (Homo sapiens), 3.2 nM. For the same compound, the GI50 in experiment [13] (Homo sapiens) is 3.4 nM; in experiment [14] (Homo sapiens, HCC 2998) it was 3.6 nM; in [15] (Homo sapiens, U-251) it was 2.5 nM; in experiment [16] (Homo sapiens), 2.7 nM; in [17], 1.3 nM; in experiment [18] (Homo sapiens), 1.7 nM. For the same compound, the GI50 was found to be 0.87 nM in experiment [19] (Homo sapiens, MCF7); 3.1 nM in experiment [20] (Homo sapiens); 3.8 nM in experiment [21] (Homo sapiens).

Consider `COC1=C(C)C(=O)C2=C(C1=O)[C@H](CNC(=O)[C@H](C)N)N1C(C2)[C@H]2c3c(cc(C)c(OC)c3O)C[C@@H]([C@@H]1C#N)N2C` (stereo partly shown) [Cyanosafracin B, reference compound], for which the GI50 in experiment [1] was determined as 540 nM; in [2], 530 nM; in experiment [3], 290 nM; in [4] it was 170 nM; in experiment [5] it was 430 nM; in experiment [6], 180 nM. Further, the GI50 stood at 82 nM in [7] (listed as drawing 116); 62 nM in experiment [7] (listed as drawing 120); 270 nM in experiment [8]; 390 nM in experiment [9]; 250 nM in experiment [10]; 1600 nM in [11]. Further, the GI50 turned out to be 130 nM in [12]; 400 nM in experiment [13]; 350 nM in experiment [14]; 370 nM in experiment [15]; 310 nM in experiment [16]; 34 nM in [17]. The GI50 in experiment [18] turned out to be 150 nM; in [19] it was 52 nM; in [20], 320 nM; in [21] it was 490 nM.
